Laboratory results taken from patent publication US10765654B2, “Methods and compounds for treating cancer” (University of Vermont and State Agricultural College, priority 2011, dated 2020).

Experiments:
ASPA in OG35 cells = experiment: Western blot of ASPA expression; assay type: cell-based, human; conditions: 0.25% GTA
Procedure: (§1) SDS-PAGE (25 μg protein from whole cell lysates) and western blotting were performed as previously described (Lluri et al. 2008 Exp Cell Res 314:11-24). Cytosol and nuclear fractions were isolated according to standard protocols. Antibodies: rabbit anti-mouse ASPA (2,000×), (Madhavarao et al. 2004 Comp Neurol 472:318-29) rabbit anti-human ASPA (5,000×; GTX1338; GeneTex, Irvine, Calif.), goat anti-human actin (1,000×, sc-1616, Santa Cruz Biotechnology, Santa Cruz, Calif.), rabbit anti-human GAPDH (5,000×, sc-25778, Santa Cruz Biotechnology, Santa Cruz, Calif.), mouse anti-human histone H1 (250×, sc-8030; Santa Cruz Biotechnology, Santa Cruz, Calif.). Species-specific HRP—(3,000×) conjugated secondary antibodies were obtained from Jackson ImmunoResearch (West Grove, Pa.). Immunocomplexes were visualized by enhanced chemiluminescence (PerkinElmer Life Sciences; Boston, Mass.) and densitometry performed using Quantity One software (Bio-Rad; Hercules, Calif.).
(§2) SDS-PAGE (25 μg protein from whole cell lysates) and western blotting were performed as previously described in Example 1.

ASPA in OG33 cells = experiment: Western blot of ASPA expression; assay type: cell-based, human; conditions: 0.25% GTA
Procedure: as §1, §2

[1] = acetate supplementation in children with Canavan Disease; cited from earlier work

With `CC(=O)OCC(COC(C)=O)OC(C)=O` [GTA, glyceryltriacetate] the “ASPA expression (Western blot)” value (ASPA in OG35 cells) was “decreased ASPA expression”, the “Expression of novel 26 kDa ASPA species (Western blot)” value (ASPA in OG33 cells) was “induced the expression of a novel 26 kDa species” and the “Expression of the putative 36 kDa ASPA protein (Western blot)” value (ASPA in OG33 cells) was “no effect”. For the same molecule, the Adverse effects [1] was “without any adverse effects”.
